“Also recorded” adds a separate entry of the source. Where no end group is shown, it is not given here.
How the values were obtained:
[1] = system: 5C.C7 RAG2−/− lymphocytes; format: cell-based, mouse; conditions: 3 h
Experimental: Cells were cultured in a 37°C humidified chamber with 5% C0_2 in complete RPMI1640 (supplemented with 10% FCS, […], 100 U/mL penicillin and streptomycin, 2 µM 2-mercaptoethanol). Single-cell suspensions were prepared from lymph nodes harvested from 5C.C7 RAG2-deficient mice (routinely >90% Vα11+Vβ3+ by flow cytometry) and stimulated in triplicate in 96-well round-bottom plates with irradiated (2,000 rad) B10.A splenocytes and the indicated peptides for 60 h. Proliferation was monitored by the addition of ^3H-methyl-thymidine (1 µCi/well). Cells were harvested onto glass-fiber filters using a Tomtec harvester, and filters were counted using a MicroBeta scintillation counter (Perkin-Elmer).

5C.C7 T cells = assay: In vivo antigen persistence (division of later transferred 5C.C7 T cells); design: species or system mouse; conditions: peptide injected 4, 2, 1, 0 wk before transfer; division at 48 h; in words
Excerpt: We addressed potential differential in vivo antigen persistence by injecting MCC or K5 peptide at various times prior to transfer of CFSE-labeled 5C.C7 T cells (Figure S7). In this experiment, the extent of division of the transferred T cells serves as a readout of amount of antigen present. […] We then considered the possibility that the blunted responses were occurring because the amount of K5 pMHC complexes was limiting in vivo. In order to directly examine the stimulatory function of in vivo–pulsed APCs, we used irradiated splenic DCs isolated from mice immunized with the different peptides to activate naïve 5C.C7 T cells in vitro, without the addition of exogenous peptide (Figure 2B,C).
Supplementary file pbio.1000481.s007.eps: Figure S7 MCC and K5 peptides persist equally in vivo. B10.A mice were immunized with the indicated peptides at 4, 2, 1, and 0 wk before adoptive transfer of CFSE-labeled 5C.C7 T cells. 5C.C7 T cell division was analyzed at 48 h after transfer as a measure of peptide antigen persistence over time. All histograms are gated on CD4^+CD45.1^+ 5C.C7 T cells. Data shown are representative of two mice per condition and two experiments. (0.99 MB EPS) Click here for additional data file.

OT-1 TCR = OT-1 TCR ligands, Listeria monocytogenes; in words; ref [25]; cited from earlier work
Excerpt: The reason we observed attenuation at the high end of the ligand potency spectrum may be because we were able to examine T cell responses to a superagonist peptide, which possibly exceeds a ligand potency threshold at which T cell attenuation is observed. Attempts to find other strong 5C.C7 TCR ligands, which would facilitate examination o ...

Sequence	EC50 [1] [nM]	In vivo peptide antigen persistence (5C.C7 T cells)	Potency of T cell responses in vitro and in vivo (OT-1 TCR)
ANERADLIAYFKAATKF [K5]	17.5	persist equally and for a few weeks in vivo	
SIINFEKL [natural OT-1 TCR ligand]			induced the most robust response; also recorded: exhibited the most potent responses in vitro and in vivo
ANERADLIAYLKQATK [MCC, moth cytochrome c (MCC) peptide]	37.8	persist equally and for a few weeks in vivo	
ANERADLIAYLKQASK [102S]	160		
ANERADLIAYPKAATKF [K3]	24.9		

— paper PMC2939023, “Attenuated T Cell Responses to a High-Potency Ligand In Vivo” (PLoS Biology, 2010)
